Test results from patent publication US20230391841A1, “MACROCYCLIC PEPTIDES” (Herantis Pharma OYJ, priority 2019, published 2023).
pKd: −log10 of the molar value. Blank lines part the entries; values can stand above or below the compound they belong to. Bridge positions count the residues as written; N and C are the ends. Ends that are not written are not given here. Peptide text beside a SMILES is read from it.

Experiments:
[1] = In vivo pharmacokinetics after intravenous administration to rats; set-up: species or system male Sprague-Dawley rats; settings: rat, 5 mg/kg intravenous bolus, male Sprague-Dawley rats
Procedure: The clearance and elimination of peptides can be mediated by multiple processes in vivo, including metabolism and renal elimination.
Test compounds were intravenously (i.v.) administered to male Spraque-Dawley rats (about is six weeks old, n=3 per compound) at 5 mg/kg. Blood samples were collected from jugular vein through implanted in-dwelling catheters (250 pl blood) into labelled polypropylene tubes containing anticoagulant (heparin) at 2 min, 5 min,15 min, 30 min, 1 h, 2 h and 4 h after compound administration and held on wet ice for a maximum of 30 minutes. The blood samples were centrifuged for plasma separation (4 °C, 21100 G, 5 min). Tolbutamide 500ng/ml with 10% TFA in acetonitrile or in MeCN was used as an internal standard solution.
The standard samples were prepared into rat plasma by spiking the matrix into concentrations 2-10 000 ng/ml of the analyte, respectively, and otherwise treated as the samples. To 50 pl aliquots of sample plasma was added 200 pl of internal standard. Samples were mixed (150 rpm, 15 min) and centrifugated (3000 rpm, 15min). The analytical method was optimized for reaction monitoring chromatographic (peak shape & retention) shifts and mass spectrometric properties (ionization efficiency, MS/MS detection). Supernatants were analyzed by UHPLC-TOF mass spectrometry using electrospray ionization.

GRP78-NBD = test: Binding to GRP78-NBD Kd (μM)
Excerpt: Table printed on a drawing sheet, FIG. 5B
Head of the field: Binding to GRP78-NBD Kd (μM)
GRP78-NBD is shown in a translucent surface model along with its cartoon trace. The Cys-Cys bond in compound 12 (SEQ ID NO: 12) is shown in sticks.
The binding affinities are obtained by a microscale thermophoresis-based cell-free assay.
GSK2606414 was used to inhibit PERK signaling and KIRA6 to inhibit IRE1alpha signaling. * p<0.05, ** p<0.01, *** p<0.001, **** p<0.0001 one-way ANOVA is test with post-hoc Fisher's LSD test for pairwise comparison vs MPP+ negative control. # p<0.05, ## p<0.01, ### p<0.001, #### p<0.0001 one-way ANOVA test with post-hoc Fisher's LSD test for pairwise comparison between effect of compound alone and its combination with UPR signal inhibitor.
Where the first naming reader finds the target: head: Binding to GRP78-NBD Kd (μM)

[2] = test system: dopaminergic TH-positive neurons injured with MPP+; test: Neuroprotective effect on dopaminergic TH-positive neurons injured with MPP+ (primary mesencephalic culture); assay type: cell-based, rat
Procedure: Neuroprotective effects of compounds 1-26 (SEQ ID NO: 1-26) were tested in an in vitro model in which primary cultures of rat embryonic mesencephalic neurons were stressed with MPP+ , the active metabolite of neurotoxin 1-methyl-4-phenyl-1,2,3,6-tetrahydropyridine (MPTP). MPP+ kills dopaminergic (TH-positive) neurons via a variety of toxic mechanisms, including mitochondrial dysfunction, generation of peroxynitrite, oxidative stress, ER stress and induction of apoptosis.
Culture of mesencephalic neurons. Rat dopaminergic neurons were cultured as described by Visanji et al., 2008. Briefly, the midbrains obtained from 15-day-old rat embryos (Janvier, France) were dissected, and the ventral portion of the mesencephalic flexure, a region of the developing brain rich in dopaminergic neurons, was used for the cell preparations. The midbrain cells were dissociated by trypsinization for 20 min at 37° C. (solution at a final concentration of 0.05% trypsin and 0.02% EDTA). The reaction was stopped by adding Dulbecco's modified Eagle's medium (DMEM) containing DNAase I grade II (0.5 mg/mL) and 10% of fetal calf serum (FCS). Cells were then mechanically dissociated by 3 passages through a 10 ml pipette. Cells were then centrifuged at 180×g for 10 min at +4° C. on a layer of BSA (3.5%) in L15 medium. The cell pellets were re-suspended in a defined culture serum-free medium consisting of Neurobasal (Invitrogen) supplemented with B27 (2%), L-glutamine (2 mM) and 2% of PS solution and 1Ong/ml of Brain-derived neurotrophic factor (BDNF) and 1 ng/mL of Glial-Derived Neurotrophic Factor (GDNF). Viable cells were counted in a Neubauer cytometer using the trypan blue exclusion test. The cells were seeded at a density of 40 000 cells/well in 96 well-plates (pre-coated with poly-L-lysine) and maintained in a humidified incubator at 37° C. in 5% CO2/95% air atmosphere. Half of the medium was changed every 2 days with fresh medium. On 96-wells plates, only 60 wells are used. To avoid any edge effect, the first and last lines and columns were not used for culture and were filled with sterile water.
CDNF as well as linear and macrocyclic compounds […] (SEQ ID NOs: 1-26) were tested. On day 6 of culture, the compounds were dissolved in culture medium and then pre-is incubated with mesencephalic neurons for 4 hours before the MPP+ application. Four hours after the preincubation of the compounds, MPP+ was added to a final concentration of 4 pM, diluted in control medium still in presence of compounds for 48 h.
48 h after intoxication, the cells were fixed by a solution of 4% paraformaldehyde in PBS, pH 7.3 for 20 min at room temperature. The cells were washed twice in PBS, and then permeabilized and non-specific sites were blocked with a solution of PBS containing 0.1% of saponin and 1% FCS for 15 min at room temperature. Next, the cells were incubated with (a) a monoclonal antibody anti-Tyrosine Hydroxylase (TH) produced in mouse at dilution of 1:10000 and with (b) a polyclonal antibody anti-alpha-synuclein (α-syn) antibody produced in rabbit at dilution of 1:400 in PBS containing 1% FCS, 0.1% saponin, for 2 h at room temperature.
48 h after intoxication, the cell culture supernatant was removed, and the cells fixed by a solution of 4% paraformaldehyde in PBS, pH 7.3 for 20 min at room temperature. The cells were washed twice in PBS, and then permeabilized and non-specific sites were blocked with a solution of PBS containing 0.1% of saponin and 1% FCS for 15 min at room temperature. Then, the cells were incubated with a) a monoclonal Anti-Tyrosine Hydroxylase (TH) antibody produced in mouse at dilution of 1:10000 in PBS containing 1% FCS, 0.1% saponin, for 2 hours at room temperature, and b) a polyclonal anti-postsynaptic density protein-95 (PSD-95) antibody produced in rabbit at dilution of 1:200 in PBS containing 1% FCS, 0.1% saponin, for 2 h at room temperature. This antibody stains specifically synapses. […]

Compound: CC[C@H](C)[C@H](NC(=O)[C@H](CCCCN)NC(=O)[C@H](CCCCN)NC(=O)[C@H](CC(C)C)NC(=O)[C@H](CCC(=O)O)NC(=O)[C@H](CCCCN)NC(=O)[C@@H](NC(=O)[C@H](CCCNC(=N)N)NC(=O)[C@H](CC(C)C)NC(=O)[C@H](CCCCN)NC(=O)[C@H](CCCCN)NC(=O)[C@H](CC(C)C)NC(=O)[C@H](CC(=O)O)NC(=O)[C@@H](N)C(C)C)C(C)C)C(=O)N[C@@H](CC(C)C)C(=O)N[C@@H](CC(=O)O)C(=O)N[C@@H](CC(=O)O)C(=O)N[C@@H](Cc1c[nH]c2ccccc12)C(=O)NCC(=O)N[C@@H](CCC(=O)O)C(=O)N[C@H](C(=O)N[C@H]1CSSC[C@@H](C(=O)N[C@@H](C)C(=O)N[C@@H](CCC(=O)O)C(=O)O)NC(=O)CNC(=O)[C@H](CCCCN)NC1=O)[C@@H](C)O [Compound 3] (H-VDLKKLRVKELKKILDDWGETCKGCAE-OH; disulfide 22-25)
- AUC(0-inf) ([1]; in vivo): 4150 ng·h/mL
- MRT ([1]; in vivo): 1.07 min
- Vd ([1]; in vivo): 0.02 L/kg
- half-life ([1]; in vivo): 4.52 min
- clearance ([1]; plasma, read-out: CI): 20.1 mL/min/kg

Compound: CDNF: full-length cerebral dopamine neurotrophic factor protein (rhCDNF), positive reference in the MPP+ neuroprotection model
- number of α-Syn inclusions (alpha-synuclein aggregates) in TH-positive neurons ([2]; primary rat mesencephalic culture after MPP+ injury): reducing accumulation
- protection of TH-positive neurons, their neurites and synapses from MPP+ toxicity ([2]; primary rat mesencephalic culture, 4 h preincubation, MPP+ 48 h): neuroprotective

Compound: VDLRKMRVAELKQILHSWGEECRACAE (disulfide 22-25) [Compound 1]
- pKd (GRP78-NBD): 7.22

Compound: VDLKKLRVKELKKILDDWGETCKGCAE (disulfide 22-25) [Compound 3]
- pKd (GRP78-NBD): 6.54

Now from value to compound:

- pKd (GRP78-NBD): 5.97
Compound: WGETCKGCAEKS (disulfide 5-8) [Compound 13]

- pKd (GRP78-NBD): 4.96
Compound: KSILDDWGETCKGCAE (disulfide 11-14) [Compound 9]

- pKd (GRP78-NBD): 5.49
Compound: GEECRACAEKT (disulfide 4-7) [Compound 15]
